From patent US8883841B2, “Oncogenic ras-specific cytotoxic compound and methods of use thereof” (The Board of Regents of the University of Texas System, priority 2005, dated 2014) come the findings set out here.

Entries after “also recorded” stand apart in the source; their conditions may differ. Bounds are passed on as bounds.

Format in all cases: cell-based, human
Assay [1] deals with H460 cells. Description: K-Ras siRNA knockdown, Oncrasin-induced apoptosis by FACS in H460 cells. To be noted: 1 μM, 12 h, compared with DMSO. As to the method:
K-Ras knockdown inhibited Oncrasin-induced apoptosis. To further study the role of K-Ras gene in Oncrasin-induced cell death, H460 cells were treated with […] of K-Ras specific siRNA or a control siRNA for 24 h. The cells were then treated with DMSO or 1 μM Oncrasin-1. After another 12 h, the cells were harvested for apoptosis detection by fluorescence-activated cytometric assay. The cell lysate was also used to detect K-Ras gene expression.
Background: Flow cytometry measures light scatter and fluorescence of single cells or particles in a stream.

Assay [2] deals with ASF/SF2. As to the kind of experiment: Antibody staining, subcellular localization of ASF/SF2. An excerpt: (§1) Effects on RNA spliceosome. To investigate the nature of this PKCiota aggregates in the nucleus, the effect of Oncrasin-1 on SC35, a protein required for RNA splicing and assembly of spliceosome (Fu et al., 1992; Vellard et al., 1992), and on Rad51, a homologous DNA recombinase that involves in DNA repair (Benson et al., 1994; Baumann et al., 1996) were studied. […] and DNA repairing are the two important functions executed in the nucleus. In untreated or DMSO-treated cells, SC35 was localized in nucleus as speckles, either diffusely distributed or concentrated as granule clusters (Mistele et al., 1997), whereas Rad51 was more uniformly distributed inside the nucleus. […] This aggregation of SC35 was not observed in Oncrasin resistant T29 cells upon the treatment with Oncrasin-1. […] The effects of Oncrasin on another spliceosome protein, alternative splicing factor/splicing factor 2 (ASF/SF2), was studied (Krainer et al., 1991). […] In the resistant T29 cells, however, such an aggregation is not observed (FIG. 8C).

In assay [3] the test system is Raf-1. Description: Western blot analysis of Raf-1 expression. The following applies: listed as Oncrasin-1. As to the method:
Ras Signaling Pathway and Molecular Mechanisms of Oncrasin-induced apoptosis. To investigate molecular mechanisms of apoptosis induction by Oncrasin compounds, levels several proteins that are involved in apoptosis and/or involved in Ras signaling pathways were determined, including Bax, Bik, Bc12, Bcl-XL, Raf-1, B-Raf, Akt, Mst1 and atypical protein kinase C (aPKC) zeta and PKCiota. To study which molecules are affected by Oncrasin treatment, T29, T29Kt1 and H460 cells were treated with Oncrasin-1 at an optimal concentration, around IC60 to IC80 for T29Kt1 and H460 cells. Cell lysates were collected 12 h after the treatment and subjected to Western blot analysis.
Suppression of Raf-1 expression by Oncrasin-1. […] To elucidate the roles of Raf-1 in Oncrasin-induced apoptosis, the inventors evaluated the expression of Raf-1 in H460 cells after treatment with different concentrations of Oncrasin-1. […] Because Raf-1 executes anti-apoptosis function via a variety of pathways. […] However, the resistance to Oncrasin-1 was more prominent in the constitutively active Raf-1-transfected cells than in cells with the wild-type Raf-1 (FIG. 10C and FIG. 10D).
In general terms: Immunoblotting shows a protein as a band on a membrane.

Assay [4] concerns TNFα-induced NFκB activation. Description: NFκB reporter plasmid (pNFκB-Luc) luciferase assay in T29Kt1 cells. To be noted: 10 μM, TNFα 1 ng/ml, 8 h. As to the method: (§2) FIGS. 11A-11C Suppression of TNFα-induced NFκB activation. NKκB reporter plasmid assay. T29K cells were transfected with pNFκB-Luc and pCMV-lacZ. 12 h later, the cells were treated with TNFα (1 ng/ml) with or without (FIG. 11A) Oncrasin-1 (10 μM) or (FIG. 11B) Sulindac (10 μm). The luciferase activity was determined at 8 h after the treatment and normalized with beta-gal activity. (FIG. 11C) H460 and T29K cells were treated with DMSO or different concentrations of Oncrasin-1 as indicated for 12 h, with or without TNFα (1 ng/ml). The NFκB activity was analyzed by EMSA.
(§3) Suppression of NFκB. In a separated study, the effect of Oncrasin compounds on NF-κB activity was assessed. Nuclear factor-κB (NF-κB)/Rel represents a group of structurally related and evolutionarily conserved transcriptional factors that play critical roles in chronic and acute inflammatory diseases, autoimmune diseases and various type of cancers (Karin and Neriah, 2000; Karin and Karin, 2006; Barnes et al., 1997). In unstimulated cells, most NF-κB/Rel dimers are bound to IκBs and retained in the cytoplasm. Upon a various stimulations, IκBs are phosphorylated and rapidly degraded, releasing NF-κB, which then enters the nucleus and executes transcriptional functions. […] The luciferase activity was determined and normalized for transfection with beta-galactosidase activity. […]

In assay [5] the test system is TNFα-mediated NFκB activation. As to the kind of experiment: Electrophoretic mobility shift assay (EMSA) of NFκB activity. The following applies: 12 h, TNFα 1 ng/ml. The protocol: as §2, §3
The subject of assay [6] is Rad51. As to the kind of experiment: Antibody staining, subcellular localization of Rad51. The following applies: T29Kt1 cells.
Source text: as §1

For `O=Cc1cn(Cc2ccc(Cl)cc2)c2ccccc12` [Oncrasin K001, 1H-Indole-3-carboxaldehyde, 1-[(4-chlorophenyl)methyl]-(9CI)], the “apoptotic cells, control siRNA treated H460” value in assay [1] is given as “dramatic increase of apoptotic cells”. The “ASF/SF2 localization, T29Kt1 cells” value in assay [2] is “induced ASF/SF2 aggregation inside nucleus”. Moreover, the “ASF/SF2 aggregation, T29 cells” value in assay [2] (resistant cells) was “not observed”. Moreover, the “Raf-1 level in H460 cells” value in assay [3] is reported as “dramatically reduces raf-1; also recorded: down regulation; also recorded: dramatically reduced Raf-1 production; also recorded: dramatic reduction in Raf-1”. The “suppression of TNFα-induced NFκB activation (luciferase)” value in assay [4] was “more active than Sulindac”. Moreover, in assay [5], the “concentration that effectively suppresses TNFα-mediated NFκB activation, H460 cells” value was not below 1 µM and the “concentration that effectively suppresses TNFα-mediated NFκB activation, T29Kt1 cells” value was not below 1 µM. For the same molecule, the “effect on Rad51” value in assay [6] was “no obvious effect”.
